Results as given in US8476307B2, “Pharmaceutical composition based on idazoxan, salts, hydrates or polymorphs thereof” (Pierre Fabre Medicament, priority 2003, dated 2013).
Structures can show the parent of a compound that is named as a salt. Where two headings read alike, the source gives them in different places.

Key:
[1] = ICH criteria
[2] = Solubility in various solvents
[3] = Pharmacokinetics of the enantiomers of idazoxan in healthy male subjects; settings: for AUC0-∞ of R(−) idazoxan / AUC0-∞ of S(+) idazoxan / CLtot/F of R(−) idazoxan / CLtot/F of S(+) idazoxan / Cmax of R(−) idazoxan / Cmax of S(+) idazoxan / Tmax of R(−) idazoxan / Tmax of S(+) idazoxan / t1/2 of R(−) idazoxan / t1/2 of S(+) idazoxan: single administration of the racemate (20 mg) or of the enantiomer alone (10 mg)
Procedure: Young healthy male subjects were allocated at random to receive a single dose of each of the following substances on one occasion: 20 mg of idazoxan racemate (polymorph of form I); 10 mg of the R(−) enantiomer; 10 mg of the S(+) enantiomer.

[4] = tested on: hypothermia induced by guanabenz; assay: Inhibition of the hypothermia induced by guanabenz; type: in vivo, mice; settings: initially, without preincubation
Procedure: (§1) The binding values of the α2-adrenoreceptors for the two enantiomers were evaluated using rat cortical tissue. In addition, the biological activity was evaluated by the inhibition of the hypothermia induced by guanabenz in mice.

α2-adrenoreceptors = assay: α2-adrenoreceptor binding in rat cortical tissue; settings: initially, without preincubation
Procedure: as §1

**Q.** Which results are given for `Cl.c1ccc2c(c1)OCC(C1=NCCN1)O2` (stereo not drawn) [Form I]?
**A.** photostability [1]: no decomposition; solubility in water ([2]; batches of the form I): Freely soluble; solubility in ethanol ([2]; batches of the form I, listed as 503): Soluble; AUC0-∞ of R(−) idazoxan [3]: 58 ± 23 ng·h/mL; AUC0-∞ of S(+) idazoxan [3]: 44 ± 21 ng·h/mL; CLtot/F of R(−) idazoxan [3]: 170 ± 76 L/h; CLtot/F of S(+) idazoxan [3]: 245 ± 136 L/h; Cmax of R(−) idazoxan [3]: 11.9 ± 4.6 ng/mL; Cmax of S(+) idazoxan [3]: 8.3 ± 3.6 ng/mL; Tmax of R(−) idazoxan [3]: 2.1 ± 0.7 h; Tmax of S(+) idazoxan [3]: 2.1 ± 0.7 h; t1/2 of R(−) idazoxan [3]: 3.3 ± 0.4 h; t1/2 of S(+) idazoxan [3]: 3.3 ± 0.4 h; Long-term stability (25° C./60% RH, listed as 500): 24 months; Long-term stability (25° C./60% RH, listed as 501): 24 months; Long-term stability (25° C./60% RH, listed as 503): 9 months; Long-term stability (25° C./60% RH, listed as 504): 9 months; Long-term stability (25° C./60% RH, listed as OP2): 24 months; Long-term stability (30° C./70% RH, listed as 500): 24 months; Long-term stability (30° C./70% RH, listed as 501): 24 months; Long-term stability (30° C./70% RH, listed as 503): 6 months; Long-term stability (30° C./70% RH, listed as 504): 6 months; Long-term stability (30° C./70% RH, listed as OP2): 24 months; Long-term stability (40° C./75% RH, listed as 500): 6 months; Long-term stability (40° C./75% RH, listed as 501): 6 months; Long-term stability (40° C./75% RH, listed as 503): 6 months; Long-term stability (40° C./75% RH, listed as 504): 6 months; Long-term stability (40° C./75% RH, listed as OP2): 9 months

**Q.** What does the source list for `c1ccc2c(c1)OC[C@H](C1=NCCN1)O2` [S(+)Idazoxan]?
**A.** effectiveness in the antagonism of the hypothermia relative to the R(−) form [4]: 15 times; binding affinity relative to the R(−) form (α2-adrenoreceptors): ten times greater; apparent clearance relative to the R(−) enantiomer ([3]; human, in vivo): approximately 1.5 times; distribution relative to the R(−) enantiomer ([3]; human, in vivo): approximately 1.5 times; t1/2 for conversion of S(+) to R(−) ([3]; in vivo): 4 h; AUC0-∞ of R(−) idazoxan [3]: 11 ± 6 ng·h/mL; AUC0-∞ of S(+) idazoxan [3]: 27 ± 13 ng·h/mL; CLtot/F of S(+) idazoxan [3]: 397 ± 205 L/h; Cmax of R(−) idazoxan [3]: 1.3 ± 0.7 ng/mL; Cmax of S(+) idazoxan [3]: 7.2 ± 5.1 ng/mL; Tmax of R(−) idazoxan [3]: 3.7 ± 0.5 h; Tmax of S(+) idazoxan [3]: 2.1 ± 0.8 h; t1/2 of R(−) idazoxan [3]: 3.7 ± 0.4 h; t1/2 of S(+) idazoxan [3]: 7.8 ± 0.5 h

**Q.** With `c1ccc2c(c1)OCC(C1=NCCN1)O2` (stereo not drawn) [Idazoxan hydrochloride, 2-(2-imidazolinyl)-1,4-benzodioxane hydrochloride] as the compound, how does the solubility in ethanol ([2]; powder) read?
**A.** soluble to fairly soluble

**Q.** What about the solubility in methanol ([2]; powder) of the same compound?
**A.** readily soluble

**Q.** And the solubility in water ([2]; powder)?
**A.** readily soluble

**Q.** With `c1ccc2c(c1)OC[C@@H](C1=NCCN1)O2` [R(−) Idazoxan] as the compound, how does the “AUC0-∞ of R(−) idazoxan” value [3] read?
**A.** 43 ± 19 ng·h/mL

**Q.** And the “AUC0-∞ of S(+) idazoxan” value [3]?
**A.** 14 ± 8 ng·h/mL

**Q.** What about the “CLtot/F of R(−) idazoxan” value [3] of the same compound?
**A.** 230 ± 92 L/h

**Q.** And the “Cmax of R(−) idazoxan” value [3]?
**A.** 10.2 ± 3.9 ng/mL

**Q.** And the “Cmax of S(+) idazoxan” value [3]?
**A.** 1.6 ± 1.0 ng/mL

**Q.** And the “Tmax of R(−) idazoxan” value [3]?
**A.** 2.5 ± 0.5 h

**Q.** And the “Tmax of S(+) idazoxan” value [3]?
**A.** 4.0 ± 0 h

**Q.** And the “t1/2 of R(−) idazoxan” value [3]?
**A.** 3.1 ± 0.6 h

**Q.** What about the “t1/2 of S(+) idazoxan” value [3] of the same compound?
**A.** 4.1 ± 0.5 h
